Laboratory results: ChEMBL document CHEMBL1201862, “PubChem BioAssay data set” (2004)
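Results reflect a 48-hour exposure of cells in 96-well plates to compound at five concentrations. GI50 is the concentration that inhibits growth by half.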 Calls of active or inactive are those of the source. Rule as the data show it: active = GI50 up to about 1.1 µM and inactive = higher.

Assays:
Assay in all cases: DTP human tumour cell line panel, 48 h
OVCAR-3 = tested on: OVCAR-3
RPMI-8226 = tested on: RPMI-8226
COLO 205 = tested on: COLO 205
A498 = tested on: A498
LOX IMVI = tested on: LOX IMVI
SF-539 = tested on: SF-539
CCRF-CEM = tested on: CCRF-CEM
UO-31 = tested on: UO-31
DMS-114 = tested on: DMS-114
DMS-273 = tested on: DMS-273
SN12C = tested on: SN12C
SF-268 = tested on: SF-268
UACC-257 = tested on: UACC-257
786-0 = tested on: 786-0
K562 = tested on: K562
SK-MEL-5 = tested on: SK-MEL-5
HCT-15 = tested on: HCT-15
U-251 = tested on: U-251
OVCAR-4 = tested on: OVCAR-4
CAKI-1 = tested on: CAKI-1
HOP-62 = tested on: HOP-62
MOLT-4 = tested on: MOLT-4
SW-620 = tested on: SW-620
HOP-92 = tested on: HOP-92
HT-29 = tested on: HT-29
IGROV-1 = tested on: IGROV-1
RXF 393 = tested on: RXF 393
A549 = tested on: A549
M19-MEL = tested on: M19-MEL
SNB-78 = tested on: SNB-78
SK-MEL-2 = tested on: SK-MEL-2
KM-20L2 = tested on: KM-20L2
KM12 = tested on: KM12
SK-OV-3 = tested on: SK-OV-3
XF498 = tested on: XF498
UACC-62 = tested on: UACC-62
DLD-1 = tested on: DLD-1
NCI-H460 = tested on: NCI-H460
HL-60 = tested on: HL-60
LXFL 529 = tested on: LXFL 529
NCI-H226 = tested on: NCI-H226
HCC 2998 = tested on: HCC 2998
M14 = tested on: M14
HOP-18 = tested on: HOP-18
NCI-H23 = tested on: NCI-H23
SNB-75 = tested on: SNB-75
SF-295 = tested on: SF-295
ACHN = tested on: ACHN
SK-MEL-28 = tested on: SK-MEL-28
OVCAR-5 = tested on: OVCAR-5
Malme-3M = tested on: Malme-3M
RXF 631 = tested on: RXF 631
OVCAR-8 = tested on: OVCAR-8
SNB-19 = tested on: SNB-19
NCI-H522 = tested on: NCI-H522
TK-10 = tested on: TK-10
EKVX = tested on: EKVX

**Q.** Which results are given for `CC(C)(C)OC(=O)N1N=NC2C1C1CC(OCc3ccccc3)(OCc3ccccc3)C2O1` (stereo unspecified)?
**A.** GI50 (OVCAR-3): 30.3 µM (inactive); GI50 (RPMI-8226): 14.1 µM (inactive); GI50 (COLO 205): > 100 µM (inactive); GI50 (A498): > 100 µM (inactive); GI50 (LOX IMVI): 18.1 µM (inactive); GI50 (SF-539): > 10 µM (inactive); GI50 (CCRF-CEM): 11.2 µM (inactive); GI50 (UO-31): 29.9 µM (inactive); GI50 (DMS-114): 17.7 µM (inactive); GI50 (DMS-273): 52.2 µM (inactive); GI50 (SN12C): 49.4 µM (inactive); GI50 (SF-268): 35.1 µM (inactive); GI50 (UACC-257): 23.6 µM (inactive); GI50 (786-0): 40.8 µM (inactive); GI50 (K562): 20.2 µM (inactive); GI50 (SK-MEL-5): 16.8 µM (inactive); GI50 (HCT-15): 31.3 µM; GI50 (U-251): 55.1 µM (inactive); GI50 (OVCAR-4): 32.5 µM (inactive); GI50 (CAKI-1): > 100 µM (inactive); GI50 (HOP-62): > 100 µM (inactive); GI50 (MOLT-4): 7.82 µM (inactive); GI50 (SW-620): 14.7 µM (inactive); GI50 (HOP-92): 33.5 µM (inactive); GI50 (HT-29): > 100 µM (inactive); GI50 (IGROV-1): > 100 µM (inactive); GI50 (RXF 393): 27.9 µM (inactive); GI50 (A549): 84.5 µM (inactive); GI50 (M19-MEL): 37.5 µM (inactive); GI50 (SNB-78): 43.7 µM (inactive); GI50 (SK-MEL-2): 49.2 µM (inactive); GI50 (KM-20L2): > 100 µM (inactive); GI50 (KM12): 81.8 µM (inactive); GI50 (SK-OV-3): > 100 µM (inactive); GI50 (XF498): 15.9 µM (inactive); GI50 (UACC-62): 71.4 µM (inactive); GI50 (DLD-1): 26.1 µM (inactive); GI50 (NCI-H460): > 100 µM (inactive); GI50 (HL-60): 8.02 µM (inactive); GI50 (LXFL 529): 16.4 µM (inactive); GI50 (NCI-H226): 21.4 µM (inactive); GI50 (HCC 2998): > 100 µM (inactive); GI50 (M14): 44.1 µM (inactive); GI50 (HOP-18): 35.9 µM (inactive); GI50 (NCI-H23): 21.1 µM (inactive); GI50 (SNB-75): 28.1 µM (inactive); GI50 (SF-295): 40 µM (inactive); GI50 (ACHN): > 100 µM (inactive); GI50 (SK-MEL-28): 29 µM (inactive); GI50 (OVCAR-5): > 100 µM (inactive); GI50 (Malme-3M): 65.8 µM (inactive); GI50 (RXF 631): > 100 µM (inactive)

**Q.** Which GI50 (OVCAR-3) does the source give for `CC(C)(C)NNC(=O)CCn1[nH]c(=O)c(Cl)c(Cl)c1=O` here?
**A.** Its GI50 is > 100 µM (inactive).

**Q.** And the GI50 (RPMI-8226)?
**A.** Its GI50 is > 100 µM (inactive).

**Q.** And the GI50 (COLO 205)?
**A.** Its GI50 is > 100 µM (inactive).

**Q.** What about the GI50 (A498) of the same molecule?
**A.** The GI50 was 10.7 µM (inactive).

**Q.** And the GI50 (OVCAR-8)?
**A.** The GI50 was > 100 µM (inactive).

**Q.** And the GI50 (LOX IMVI)?
**A.** The GI50 was > 100 µM (inactive).

**Q.** And the GI50 (SF-539)?
**A.** Its GI50 is > 100 µM (inactive).

**Q.** And the GI50 (CCRF-CEM)?
**A.** The GI50 was > 100 µM (inactive).

**Q.** And the GI50 (UO-31)?
**A.** Its GI50 is > 100 µM (inactive).

**Q.** What about the GI50 (DMS-114) of the same molecule?
**A.** The GI50 was > 100 µM (inactive).

**Q.** And the GI50 (DMS-273)?
**A.** Its GI50 is > 100 µM (inactive).

**Q.** What about the GI50 (SN12C) of the same molecule?
**A.** Its GI50 is > 100 µM (inactive).

**Q.** What about the GI50 (SNB-19) of the same molecule?
**A.** The GI50 was > 100 µM (inactive).

**Q.** And the GI50 (SF-268)?
**A.** Its GI50 is > 100 µM (inactive).

**Q.** What about the GI50 (UACC-257) of the same molecule?
**A.** Its GI50 is > 100 µM (inactive).

**Q.** And the GI50 (NCI-H522)?
**A.** The GI50 was > 100 µM (inactive).

**Q.** What about the GI50 (786-0) of the same molecule?
**A.** Its GI50 is > 100 µM (inactive).

**Q.** And the GI50 (K562)?
**A.** The GI50 was > 100 µM (inactive).

**Q.** And the GI50 (HCT-15)?
**A.** Its GI50 is > 100 µM.

**Q.** What about the GI50 (U-251) of the same molecule?
**A.** Its GI50 is > 100 µM (inactive).

**Q.** And the GI50 (OVCAR-4)?
**A.** Its GI50 is > 100 µM (inactive).

**Q.** What about the GI50 (CAKI-1) of the same molecule?
**A.** Its GI50 is > 100 µM (inactive).

**Q.** And the GI50 (HOP-62)?
**A.** Its GI50 is > 100 µM (inactive).

**Q.** And the GI50 (MOLT-4)?
**A.** Its GI50 is > 100 µM (inactive).

**Q.** And the GI50 (SW-620)?
**A.** The GI50 was > 100 µM (inactive).

**Q.** And the GI50 (TK-10)?
**A.** Its GI50 is > 100 µM (inactive).

**Q.** And the GI50 (HT-29)?
**A.** Its GI50 is > 100 µM (inactive).

**Q.** What about the GI50 (IGROV-1) of the same molecule?
**A.** Its GI50 is > 100 µM (inactive).

**Q.** What about the GI50 (RXF 393) of the same molecule?
**A.** Its GI50 is > 100 µM (inactive).

**Q.** And the GI50 (A549)?
**A.** The GI50 was > 100 µM (inactive).

**Q.** What about the GI50 (M19-MEL) of the same molecule?
**A.** Its GI50 is > 100 µM (inactive).

**Q.** And the GI50 (SK-MEL-2)?
**A.** Its GI50 is > 100 µM (inactive).

**Q.** And the GI50 (KM-20L2)?
**A.** The GI50 was > 100 µM (inactive).

**Q.** And the GI50 (KM12)?
**A.** The GI50 was > 100 µM (inactive).

**Q.** And the GI50 (SK-OV-3)?
**A.** The GI50 was > 100 µM (inactive).

**Q.** And the GI50 (XF498)?
**A.** Its GI50 is > 100 µM (inactive).

**Q.** And the GI50 (UACC-62)?
**A.** Its GI50 is > 100 µM (inactive).

**Q.** And the GI50 (DLD-1)?
**A.** Its GI50 is > 100 µM (inactive).

**Q.** And the GI50 (NCI-H460)?
**A.** Its GI50 is > 100 µM (inactive).

**Q.** What about the GI50 (HL-60) of the same molecule?
**A.** Its GI50 is > 100 µM (inactive).

**Q.** What about the GI50 (LXFL 529) of the same molecule?
**A.** Its GI50 is > 100 µM (inactive).

**Q.** What about the GI50 (NCI-H226) of the same molecule?
**A.** Its GI50 is > 100 µM (inactive).

**Q.** And the GI50 (EKVX)?
**A.** Its GI50 is > 100 µM (inactive).

**Q.** What about the GI50 (HCC 2998) of the same molecule?
**A.** The GI50 was > 100 µM (inactive).

**Q.** What about the GI50 (M14) of the same molecule?
**A.** Its GI50 is > 100 µM (inactive).

**Q.** What about the GI50 (HOP-18) of the same molecule?
**A.** The GI50 was > 100 µM (inactive).

**Q.** And the GI50 (NCI-H23)?
**A.** Its GI50 is > 100 µM (inactive).

**Q.** And the GI50 (SNB-75)?
**A.** The GI50 was > 100 µM (inactive).

**Q.** And the GI50 (SF-295)?
**A.** The GI50 was > 100 µM (inactive).

**Q.** And the GI50 (ACHN)?
**A.** The GI50 was > 100 µM (inactive).

**Q.** What about the GI50 (SK-MEL-28) of the same molecule?
**A.** The GI50 was > 100 µM (inactive).

**Q.** And the GI50 (OVCAR-5)?
**A.** The GI50 was > 100 µM (inactive).

**Q.** What about the GI50 (Malme-3M) of the same molecule?
**A.** The GI50 was > 100 µM (inactive).

**Q.** What about the GI50 (RXF 631) of the same molecule?
**A.** Its GI50 is > 100 µM (inactive).
